In this assay the test system is CD2F1 mice, L1210 leukemia ip, survival T/C. Kind of assay: NCI In Vivo Anticancer Drug Screen. Data for tumor model L1210 Leukemia (intraperitoneal) in CD2F1 (CDF1) mice. Conditions: higher = longer survival. An outline of the steps: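 Read-out first: treated-group measurement over vehicle-control measurement, expressed as a ratio. Animals bore a transplanted tumor line and were dosed with compound or vehicle.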

Setting [1] is: endpoint: mean survival time, dose: 100.0 mg/kg/injection, schedule: Q04DX003 (ip), vehicle: saline.
The mark [2] stands for this setting: endpoint: mean survival time, dose: 200.0 mg/kg/injection, schedule: Q04DX003 (ip), vehicle: saline.
Setting [3] is: endpoint: mean survival time, dose: 400.0 mg/kg/injection, schedule: Q04DX003 (ip), vehicle: saline.
Where [4] appears, read: endpoint: mean survival time, dose: 25.0 mg/kg/injection, schedule: Q01DX009 (ip), vehicle: saline with Tween-80.
The mark [5] stands for this setting: endpoint: mean survival time, dose: 50.0 mg/kg/injection, schedule: Q01DX009 (ip), vehicle: saline with Tween-80.
[6] abbreviates: endpoint: mean survival time, dose: 100.0 mg/kg/injection, schedule: Q04DX003 (ip), vehicle: saline with Tween-80.
Setting [7] is: endpoint: mean survival time, dose: 200.0 mg/kg/injection, schedule: Q01DX009 (ip), vehicle: saline with Tween-80.
Where [8] appears, read: endpoint: mean survival time, dose: 400.0 mg/kg/injection, schedule: Q01DX009 (ip), vehicle: saline with Tween-80.
The mark [9] stands for this setting: endpoint: mean survival time, dose: 200.0 mg/kg/injection, schedule: Q04DX003 (ip), vehicle: saline with Tween-80.
Setting [10] is: endpoint: mean survival time, dose: 400.0 mg/kg/injection, schedule: Q04DX003 (ip), vehicle: saline with Tween-80.
Setting [11] is: endpoint: mean survival time, dose: 100.0 mg/kg/injection, schedule: Q01DX009 (ip), vehicle: saline with Tween-80.
Setting [12] is: endpoint: mean survival time, dose: 100.0 mg/kg/injection, schedule: Q04DX002 (ip), vehicle: saline with Tween-80.
Where [13] appears, read: endpoint: mean survival time, dose: 200.0 mg/kg/injection, schedule: Q04DX002 (ip), vehicle: saline with Tween-80.

Each structure is given as a SMILES string. Where “and” joins values, the source holds several entries; their conditions need not be identical. Equal entries are not always repeated. Toxic doses and inconclusive results are not listed. Residues, ends and D or L forms follow the SMILES beside them.

Turning to `CC(=O)OCC1OC(n2ccc(=O)[nH]c2=O)CC1N=[N+]=[N-]` (configuration not stated), the T/C is 104 % of control (endpoint: median survival time, dose: 12.5 mg/kg/injection, schedule: Q01DX005 (ip), vehicle: saline with Tween-80); 107 % of control (endpoint: median survival time, dose: 25.0 mg/kg/injection, schedule: Q01DX005 (ip), vehicle: saline with Tween-80); 104 % of control (endpoint: median survival time, dose: 50.0 mg/kg/injection, schedule: Q01DX005 (ip), vehicle: saline with Tween-80); 101 % of control (endpoint: median survival time, dose: 100.0 mg/kg/injection, schedule: Q01DX005 (ip), vehicle: saline with Tween-80); 106 % of control (endpoint: median survival time, dose: 200.0 mg/kg/injection, schedule: Q01DX005 (ip), vehicle: saline with Tween-80).

As to `CN(C)C(c1ccccc1)P(=O)(O)O` (configuration not stated), the T/C is, setting by setting: under setting [1], 98 % of control; under setting [2], 101 % of control; under setting [3], 98 % of control.

For the compound `CCOc1ccc(-n2c(-c3ccc(Br)cc3)csc2=NC(=O)c2ccccc2F)cc1`, the T/C by setting is: under setting [4], 92 % of control and 100 % of control; (endpoint: mean survival time, dose: 25.0 mg/kg/injection, schedule: Q04DX003 (ip), vehicle: saline with Tween-80) 88 % of control; under setting [5], 88 % of control; (endpoint: mean survival time, dose: 50.0 mg/kg/injection, schedule: Q04DX003 (ip), vehicle: saline with Tween-80) 94 % of control; (endpoint: mean survival time, dose: 100.0 mg/kg/injection, schedule: Q01DX001 (ip), vehicle: saline with Tween-80) 93 % of control; under setting [6], 92 % of control and 95 % of control. Besides, the T/C is 91 % of control (endpoint: mean survival time, dose: 200.0 mg/kg/injection, schedule: Q01DX001 (ip), vehicle: saline with Tween-80); 88 % of control and 90 % of control under setting [7]; 95 % of control (endpoint: mean survival time, dose: 400.0 mg/kg/injection, schedule: Q01DX001 (ip), vehicle: saline with Tween-80); 90 % of control under setting [8].

Consider `CN(C)CCSc1nnc(N)s1`, for which the T/C (endpoint: mean survival time, dose: 200.0 mg/kg/injection, schedule: Q01DX001 (ip), vehicle: saline) is 100 % of control.

In the case of `CC(C)C(NC(=O)C(CCCN=C(N)N)NC(=O)C(N)CCCCN)C(N)=O` (stereo not drawn) (H-Lys-Arg-Val-NH2; configuration not given here), the T/C reads like this: (endpoint: mean survival time, dose: 12.5 mg/kg/injection, schedule: Q01DX009 (ip), vehicle: water) 101 % of control; (endpoint: mean survival time, dose: 25.0 mg/kg/injection, schedule: Q01DX009 (ip), vehicle: water) 101 % of control; (endpoint: mean survival time, dose: 50.0 mg/kg/injection, schedule: Q01DX009 (ip), vehicle: water) 94 % of control; (endpoint: mean survival time, dose: 100.0 mg/kg/injection, schedule: Q01DX009 (ip), vehicle: water) 97 % of control; (endpoint: mean survival time, dose: 200.0 mg/kg/injection, schedule: Q01DX009 (ip), vehicle: water) 95 % of control.

In the case of `CCOC(=O)c1cc(=O)n(C)c2ccc(OCC)cc12`, the T/C by setting is: (endpoint: mean survival time, dose: 100.0 mg/kg/injection, schedule: Q01DX009 (ip), vehicle: saline sonified) 101 % of control; under setting [6], 100 % of control; (endpoint: mean survival time, dose: 200.0 mg/kg/injection, schedule: Q01DX009 (ip), vehicle: saline sonified) 97 % of control; under setting [9], 91 % of control; (endpoint: mean survival time, dose: 400.0 mg/kg/injection, schedule: Q01DX009 (ip), vehicle: saline sonified) 97 % of control; under setting [10], 91 % of control.

Regarding `O=C(Nc1nncs1)c1ccncc1`, the T/C is 95 % of control and 112 % of control (endpoint: mean survival time, dose: 12.5 mg/kg/injection, schedule: Q01DX009 (ip), vehicle: saline with Tween-80); 115 % of control and 92 % of control under setting [4]; 103 % of control under setting [5]; 123 % of control and 94 % of control under setting [7]; 110 % of control under setting [8].

Take `CC[N+]1(C)CCC(CN2c3ccccc3Sc3ccccc32)C1` (configuration not stated): the T/C is, setting by setting: under setting [11], 93 % of control; under setting [7], 98 % of control; under setting [8], 110 % of control.

Regarding `CC(=O)[O][Hg][O]C(C)=O`, the T/C (endpoint: mean survival time, dose: 1.25 mg/kg/injection, schedule: Q01DX009 (ip), vehicle: saline sonified) is 95 % of control; the T/C (endpoint: mean survival time, dose: 2.5 mg/kg/injection, schedule: Q01DX009 (ip), vehicle: saline sonified) is 103 % of control; the T/C (endpoint: mean survival time, dose: 5.0 mg/kg/injection, schedule: Q01DX009 (ip), vehicle: saline sonified) was 90 % of control; the T/C (endpoint: mean survival time, dose: 5.0 mg/kg/injection, schedule: Q04DX003 (ip), vehicle: saline with Tween-80) is 106 % of control.

With `O=c1ssc(=Nc2ccccc2)n1-c1ccccc1`, the T/C was 103 % of control (endpoint: mean survival time, dose: 12.5 mg/kg/injection, schedule: Q01DX009 (ip), vehicle: Klucel (hydroxypropylcellulose) (HPC)); 93 % of control and 102 % of control (endpoint: mean survival time, dose: 25.0 mg/kg/injection, schedule: Q01DX009 (ip), vehicle: Klucel (hydroxypropylcellulose) (HPC)); 98 % of control and 110 % of control (endpoint: mean survival time, dose: 50.0 mg/kg/injection, schedule: Q01DX009 (ip), vehicle: Klucel (hydroxypropylcellulose) (HPC)); 103 % of control and 108 % of control (endpoint: mean survival time, dose: 100.0 mg/kg/injection, schedule: Q01DX009 (ip), vehicle: Klucel (hydroxypropylcellulose) (HPC)); 98 % of control and 102 % of control (endpoint: mean survival time, dose: 200.0 mg/kg/injection, schedule: Q01DX009 (ip), vehicle: Klucel (hydroxypropylcellulose) (HPC)); 117 % of control and 104 % of control (endpoint: mean survival time, dose: 400.0 mg/kg/injection, schedule: Q01DX009 (ip), vehicle: Klucel (hydroxypropylcellulose) (HPC)).

Regarding `COc1ccc(COC(=O)Nc2ccc(Cl)cc2)cc1`, the T/C was 104 % of control (endpoint: mean survival time, dose: 50.0 mg/kg/injection, schedule: Q04DX002 (ip), vehicle: saline with Tween-80); 100 % of control under setting [12]; 92 % of control under setting [13].

With `CS(=O)(=O)Nc1ccc(Nc2c3ccccc3nc3cc(Cl)ccc23)cc1`, the T/C under setting [5] was 186 % of control; the T/C under setting [1] was 160 % of control; the T/C (endpoint: mean survival time, dose: 133.0 mg/kg/injection, schedule: Q04DX003 (ip), vehicle: saline with Tween-80) is 114 % of control; the T/C under setting [2] was 225 % of control.

In the case of `CN(C)CC1CCCC12OCCO2` (configuration not stated), the T/C was 100 % of control (endpoint: mean survival time, dose: 75.0 mg/kg/injection, schedule: Q01DX001 (ip), vehicle: other); 96 % of control (endpoint: mean survival time, dose: 150.0 mg/kg/injection, schedule: Q01DX001 (ip), vehicle: other); 106 % of control (endpoint: mean survival time, dose: 300.0 mg/kg/injection, schedule: Q01DX001 (ip), vehicle: other).

For the compound `O=C1NC(=O)c2c(O)ccc(O)c21`, the T/C was 114 % of control (endpoint: mean survival time, dose: 100.0 mg/kg/injection, schedule: Q01DX001 (ip), vehicle: Klucel (hydroxypropylcellulose) (HPC)); 91 % of control (endpoint: mean survival time, dose: 200.0 mg/kg/injection, schedule: Q01DX001 (ip), vehicle: Klucel (hydroxypropylcellulose) (HPC)); 95 % of control (endpoint: mean survival time, dose: 400.0 mg/kg/injection, schedule: Q01DX001 (ip), vehicle: Klucel (hydroxypropylcellulose) (HPC)).

Turning to `CCC(=O)C(C)N(C)c1ccccc1` (configuration not stated), the T/C is 100 % of control under setting [1], 100 % of control under setting [2] and 94 % of control under setting [3].

Consider `COC(=O)c1cocc1C(=O)OC`, for which the T/C reads like this: under setting [12], 95 % of control; under setting [13], 91 % of control; (endpoint: mean survival time, dose: 400.0 mg/kg/injection, schedule: Q04DX002 (ip), vehicle: saline with Tween-80) 95 % of control.

Turning to `COC(=O)c1ccccc1N=NNc1ccc(C(F)(F)F)c([N+](=O)[O-])c1`, the T/C under setting [11] was 103 % of control, the T/C under setting [7] was 95 % of control and the T/C under setting [8] is 95 % of control.

On to `O=C(O)c1c(F)c(F)c(F)c(Br)c1F`, for which the T/C is 93 % of control under setting [6] and 93 % of control under setting [9].

As for `CCCCCCCCCCCCCCNCCC(=O)O`, the T/C is, setting by setting: (endpoint: mean survival time, dose: 75.0 mg/kg/injection, schedule: Q01DX001 (ip), vehicle: saline) 98 % of control; (endpoint: mean survival time, dose: 150.0 mg/kg/injection, schedule: Q01DX001 (ip), vehicle: saline) 106 % of control.

On to `CC(=O)NNC(=O)c1ccc(Br)cc1`, for which the T/C was 107 % of control under setting [11] and 119 % of control under setting [7].

As to `Cc1ccc(S(=O)(=O)c2ccc(F)cc2)cc1`, the T/C by setting is: under setting [11], 100 % of control; under setting [7], 102 % of control; under setting [8], 96 % of control.

In the case of `CCOC1(C(C)C)CCC(C)/C(=C\c2ccc([N+](=O)[O-])cc2)C1=O` (configuration not stated), the T/C reads like this: under setting [6], 93 % of control; under setting [9], 93 % of control; under setting [10], 96 % of control.

The values above are taken from PubChem BioAssay AID256 (DTP/NCI, 2004).
